“Also recorded” adds a separate entry of the source. Like-named read-outs stand apart in the source and are kept apart here.
Assays:
FVB male mice [1] = experiment: Acute inflammatory exudates: zymosan A murine peritonitis (leukocyte infiltration); format: in vivo, mouse
Experimental: Peritonitis was carried out using 6-8 week-old FVB male mice (Charles River Laboratories) fed laboratory Rodent Diet 5001 (Purina Mills) that were anesthetized with isoflurane, and compounds to be tested were administered intraperitoneally. […] Each compound tested or vehicle alone was suspended in 1 μl ethanol and mixed in sterile saline (120 μl). After intraperitoneal injections (either 2 or 4 hours of acute inflammation), the mice were sacrificed in accordance with the Harvard Medical Area Standing Committee on Animals protocol no. 02570, and peritoneal lavages were collected rapidly and placed in an ice bath (4° C.) for enumeration, differential counts, and further analysis.

male FvB mice [2] = experiment: PD1 given after aeroallergen challenge (days 18-20), BAL on day 21; format: in vivo, mouse
Experimental: In select experiments, animals were sensitized and aeroallergen challenged for four days prior to receiving PD1 (20 ng) or PBS by intravenous injection (0.1 ml) on days 18, 19 and 20. On day 21, bilateral BAL was performed.
Murine lungs were fixed in 10% buffered formalin and paraffin embedded for hematoxylin and eosin and periodic acid Schiff staining (Sigma Chemical Co.). Tissue morphometry was performed by a member (K. Haley) of the Lung Histopathology Core Laboratory at Brigham and Women's Hospital who was blinded to the experimental conditions prior to histological analyses. Three fields per slide were examined at 200× magnification for vessels, large airways and alveoli with EOS counted at 400× magnification in randomly assigned fields. Vessels were identified by perivascular smooth muscle, and large airways were identified by at least ½ their diameter either cuboidal or columnar epithelia. Measurement of inflammatory mediators was determined in cell-free BAL fluid (BALF) (2000 g, 10 min) by sensitive and specific ELISAs, in tandem, for interleukin-5 (IL-5), IL-12, IL-13, PGD2 (R&D Systems), cysteinyl LTs, (Cayman Chemical Co.), and LXA4 (Neogen). Cells in BALF were resuspended in PBS, enumerated by hemocytometer, and concentrated onto microscope slides by cytocentrifuge (STATspin) (265 g). […]

FVB male mice [3] = details: cited from earlier work
male FvB mice [4] = format: in vivo
Experimental: (§1) Five to seven week old male FvB mice (Charles River Laboratories) were housed in isolation cages under viral antibody-free conditions. Mice were fed a standard diet (Laboratory Rodent Diet 5001, PMI Nutrition International) that contained no less than 4.5% total fat with 0.26% omega-3 fatty acids and <0.01% C20:4. After Harvard Medical Area IRB approval (Protocol #02570), mice were sensitized with intraperitoneal injections of ovalbumin (OVA) (Grade III; Sigma Chemical Co.) (10 μg) plus 1 mg aluminum hydroxide (ALUM) (J.T. Baker Chemical Co.) as adjuvant in 0.2 ml PBS on days 0 and 7. On days 14, 15, 16 and 17, the mice received PD1 (2, 20 or 200 ng) (a product of biogenic synthesis (52)) or PBS with 1.6 mM CaCl2 and 1.6 mM MgCl2 (0.1 ml) by intravenous injection 30 min prior to an aerosol challenge containing either PBS or 6% OVA for 25 min/day. Matching experiments were performed with 20 ng PD1 prepared by total organic synthesis (62).
On day 18, 24 h after the last aerosol challenge, either airway responsiveness to aerosolized methacholine (0, 20, 50 and 75 mg, 10 sec) was measured, bilateral bronchoalveolar lavage (BAL) (2 aliquots of 1 ml PBS plus 0.6 mM EDTA) was performed or tissues were harvested for histological analysis. Lung resistance was measured using a Flexivent ventilator (SciReq). Resistance was measured as a function of time for each animal, and peak and average values for each dose of methacholine were recorded. […]
Murine lungs were fixed in 10% buffered formalin and paraffin embedded for hematoxylin and eosin and periodic acid Schiff staining (Sigma Chemical Co.). […] Three fields per slide were examined at 200× magnification for vessels, large airways and alveoli with EOS counted at 400× magnification in randomly assigned fields. […] Measurement of inflammatory mediators was determined in cell-free BAL fluid (BALF) (2000 g, 10 min) by sensitive and specific ELISAs, in tandem, for interleukin-5 (IL-5), IL-12, IL-13, PGD2 (R&D Systems), cysteinyl LTs, (Cayman Chemical Co.), and LXA4 (Neogen). […]

[5] = test system: human PMN transmigration across endothelial cells; experiment: Human PMN transmigration across HMEC monolayers, LTB4-induced; format: cell-based
Experimental: PMN were freshly isolated from whole blood obtained by venipuncture from healthy human donors (who denied taking medication for 2 weeks prior to donation; BWH protocol no. 88-02642) and anti-coagulated with acid citrate dextrose as in (40, 41). Briefly, plasma and mononuclear cells were removed by aspiration from the buffy coat after centrifugation (400 g; 20 min) at room temperature. Histopaque (density 1.077) was from Sigma-Aldrich (St. Louis, Mo.). RBCs were sedimented using 2% gelatin, and residual RBCs were removed by lysis in ice-cold NH4Cl buffer. The cell suspensions were >90% PMN as determined by light microscopic evaluation. PMN were suspended at 5×10^7 cells/ml in HBSS with 10 mM Hepes, pH 7.4, and without Ca^2+ or Mg^2+ (Sigma-Aldrich, St. Louis, Mo.). PMN were used within 2 hours of their isolation.
Human Microvascular Endothelial Cells (HMEC; a gift from Francisco Candal of the Centers for Disease Control, Atlanta, Ga.) were obtained as primary cultures. For preparation of experimental HMEC monolayers, confluent endothelial cells were grown on 0.33 cm^2 ring-supported polycarbonate filters (5 μm pore size; Costar Corp., Cambridge, Mass.) in the apical-to-basolateral direction. Cells were grown for ˜1 week prior to transmigration experiments.
Transmigration was conducted essentially as in ref. (41). PMN were incubated with either vehicle-containing buffer or compound for 15 minutes at 37° C. A chemotactic gradient was established by placing HMEC inserts that had been washed in HBSS with Ca^2+ and Mg^2+ (denoted +/+) in 10^−8M LTB4 in the lower chambers. Neutrophils (10^6 cells) were added to 50 μl HBSS +/+ in the upper chambers and cells were incubated at 37° C. for 90 min. Transmigrated PMN were quantified by assessing the PMN azurophilic marker myeloperoxidase and a calibration curve. PMN were lysed by the addition of Triton X-100 to a final concentration of 0.5%. The samples were acidified with citrate buffer (final concentration 100 mM, pH 4.2). An aliquot of each sample was added to an equal volume of ABTS solution (1 mM ABTS [2′-azino-bis(3-ethylbenzo-thiazoline-6-sulfonic acid)], 0.03% H2O2, 100 mM sodium citrate buffer, pH 4.2) in a 96-well plate. The resulting color was monitored using a plate reader at 405 nm and a calibration curve for cell number.

male FvB mice [6] = experiment: Airway responsiveness to aerosolized methacholine in OVA-sensitized/challenged mice; format: in vivo, mouse
Experimental: as §1
On day 18, 24 h after the last aerosol challenge, either airway responsiveness to aerosolized methacholine (0, 20, 50 and 75 mg, 10 sec) was measured, bilateral bronchoalveolar lavage (BAL) (2 aliquots of 1 ml PBS plus 0.6 mM EDTA) was performed or tissues were harvested for histological analysis. Lung resistance was measured using a Flexivent ventilator (SciReq). Resistance was measured as a function of time for each animal, and peak and average values for each dose of methacholine were recorded. No BAL or histological analysis was performed on those animals undergoing airway hyper-responsiveness or lipid extraction studies.

CC/C=C\C[C@H](O)\C=C/C=C/C=C/[C@H](O)C/C=C\C/C=C\CCC(=O)O [PD1, 10R,17S-dihydroxy-docosa-4Z,7Z,11E,13E,15Z,19Z-hexaenoic acid]
rank order of potency (FVB male mice [1]; 0.1 ng dose): Compound VI>>PD1>10S,17S-DT (the double dioxygenation product)>the Δ15-trans-PD1>>Compound V | activity on PMN infiltration (in words) (FVB male mice [1]; 1 ng/mouse dose): striking inhibition of PMN infiltration | PMN infiltration when given after initiation of inflammation (in words) (FVB male mice [1]; 1 ng/mouse i.p. 2 h after zymosan A, lavage at 4 h): diminished infiltration of PMN; also recorded: reduces PMN infiltration; also recorded: reduced PMN infiltration after initiation (2 h) of inflammation | inhibition of PMN infiltration (FVB male mice [1]; 1 ng/mouse, peritonitis): ~40% | inhibition of PMN infiltration (FVB male mice [1]; 10 ng and 100 ng doses (maintained)): ~40% | kind of joint anti-inflammatory action of PD1 and RvE1 (FVB male mice [1]; 10 ng/mouse i.p. of either or both, 2 h): additive rather than synergistic | PMN infiltration, PD1 and RvE1 administered together (in words) (FVB male mice [1]; 10 ng/mouse i.p., exudates at 2 h): reduced the infiltration of PMN | PMN infiltration (in words) (FVB male mice [1]; 10 ng/mouse, 4 h after injection (FIG. 9)): reduced PMN infiltration; also recorded: Statistically different from *zymosan A-injected mice | rank order of potency (FVB male mice [1]; 1-10 ng dose): PD1≈PD1 methyl ester>>Δ15-trans PD1>10S,17S-diHDHA (isomer I) | anti-inflammatory potency in vivo, PMN infiltration (in words) (FVB male mice [1]; dose range tested (FIG. 6), lavage at 2 h): dramatically reduced the infiltration of PMN into the peritoneum; also recorded: more potent than the dioxygenation product; also recorded: potent regulator of PMN infiltration in vivo | blocking of further PMN infiltration (FVB male mice [1]; given 2 h after zymosan A challenge): > 90% | recruitment of monocytes and lymphocytes to exudates (in words) (FVB male mice [1]; peritonitis, differential counts): increased the non-phlogistic recruitment of monocytes and lymphocytes; also recorded: regulated both monocyte and lymphocyte traffic | numbers of total leukocytes, Eos and Lymphs in BALFs (male FvB mice [2]; 20 ng iv once a day for three days after challenge, day 21): significant decrements | resolution of allergic airway inflammation (in words) (male FvB mice [2]; PD1 treatment after aeroallergen challenge): has the capacity to accelerate resolution of allergic airway inflammation; also recorded: promoted the resolution of airway inflammation; also recorded: promotes resolution of allergen-driven leukocytes; also recorded: markedly accelerated the resolution of airway inflammation | inhibition of PMN infiltration (FVB male mice [3]; 100 ng/mouse, i.v., earlier experiments (ref 1)): ~40% | apparent maximal response, reduction of PMN infiltration (FVB male mice [3]; doses as low as 100 ng/mouse (ref 1)): ~50% | potency versus indomethacin in reducing PMN infiltration (FVB male mice [3]; i.v., earlier experiments (ref 1)): more potent than indomethacin | EOS and Lymphs in the peribronchial regions and airspaces (histology) (male FvB mice [4]; 2, 20 or 200 ng i.v., versus vehicle): substantially less EOS and Lymphs | EOS tissue infiltration around vessels and in large and peripheral airways (morphometry) (male FvB mice [4]; PD1 i.v. prior to challenge): significant decreases | EOS trafficking (male FvB mice [4]; as little as 2 ng of PD1): reduced | inhibition of PMN transmigration ([5]; 1.0 nM, in response to leukotriene B4): 30% | attenuation of human neutrophil transmigration ([5]; 10 nM, LTB4 10^-8 M, 90 min): ~50% | reduction of PMN transmigration ([5]; 10-100 nM, in vitro): 35-45% | highest degree of inhibition of neutrophil transmigration observed ([5]; HMEC monolayers, neutrophils from >5 separate donors, each experiment): ≤ 50% | effect on LTB4-induced PMN transmigration (in words) ([5]; compound 15 min, LTB4 10^-8 M 90 min): reduced PMN transmigration; also recorded: inhibited LTB4-induced PMN migration; also recorded: stereoselectively reduces PMN transmigration in vitro | shape of dose response, protection on airway hyper-responsiveness (male FvB mice [6]; 2, 20, 200 ng): bell-shaped dose response with maximal protection | log ED200 for the mean airway resistance (male FvB mice [6]; 2, 20 and 200 ng, compared with vehicle): significantly increased | airway hyper-responsiveness: peak and average lung resistance in response to methacholine (male FvB mice [6]; PD1 0-200 ng i.v. prior to OVA challenge): decreased both peak and average lung resistance; also recorded: dampened; also recorded: reduces airway hyper-responsiveness | lung elastance or compliance (male FvB mice [6]; following allergen challenge (data not shown)): no significant changes | airway responses of control animals that received PBS rather than allergen (male FvB mice [6]; mouse, in vivo): no significant impact
